Assay results taken from US20190226949A1, “IRIDIUM COMPLEXES FOR CELLULAR IMAGING” (UNIVERSITY OF SOUTH AUSTRALIA, priority 2016, published 2019).
Values joined by “and” are separate entries in the source; they are usually repeats but may differ in a detail not shown here. Equal entries are not always repeated.

Columns and labels:
[1] = Lipophilicity by shake-flask method (7.4-buffered PBS / n-octanol); format: physicochemical; conditions: pH 7.4; 7.4-buffered PBS solution and n-octanol; read-out: logD7.4, distribution coefficient
Method: The lipophilicity of the iridium complexes was measured by the shake-flask method using 7.4-buffered PBS and n-octanol as solvents (Table 2). The values range between 1.49 and 2.68 are typical for cyclometalated iridium complexes that have not been bioconjugated. […] In general, neutral complexes have log D7.4 values above 2.00 and there is an increased in lipophilicity of extending the tetrazolato ligand with the addition of a phenyl spacer in [Ir(ppy)2(TzPyPhCN)], or by extending the conjugation on passing from pyridine to quinoline or isoquinoline for [Ir(ppy)2(TzQn)] and [Ir(ppy)2(TziQn)]. Methylation in all cases reduces lipophilicity to log D7.4 values […], with the same trend within the family of methylated complexes as previously observed for the neutral ones.

[2] = test system: H9c2 rat cardiomyoblast cells; assay: Staining and co-staining of live H9c2 cells, confocal and two-photon microscopy; format: cell-based
Method: Live H9c2 rat cardiomyoblasts were incubated with the iridium complexes for 30 minutes. Complexes were made to a final concentration of 20 μM in the cell culture medium with DMSO concentration <0.2%. Under these conditions, the luminescence from the iridium complexes within the cells was detected via confocal microscopy under single-photon excitation (403 nm) or two-photon excitation (810-840 nm).
To determine the localisation of the iridium complexes, co-staining experiments were carried out with the use of ER-Tracker™ Red (endoplasmic reticulum), LysoTracker® Red DND-99 (acidic compartments), MitoTracker® Red (mitochondria), BODIPY® 500/510 C1, C12(fatty acid) or β-BODIPY® FL HPC (phospholipids). […] This difference was also in agreement with the trend of the quantum yield data illustrated before and detection of internalised complex by ICP-MS.
H9c2 rat cardiomyoblast cell line was a kind gift from Professor Janna Morrison (University of South Australia). The H9c2 cells were maintained in high-glucose (4500 mg/L) DMEM medium (Sigma-Aldrich, USA) containing 10% fetal bovine serum (FBS; In Vitro Technologies, USA) and 2 mM L-glutamine (Sigma-Aldrich, USA) at 37° C. and 5% CO2. The H9c2 cells were cultured in […] flasks, and cells (1×10^6 cells/mL) that had been passaged, from two up to five times were used for experiments. For live cell imaging and MTS assay, the H9c2 cells (1×10^5 cells/mL) were cultured overnight in either ibidi μ-Slide 8 wells in a final volume of 250 μL or 96-well microtiter plate in a final volume of 200 μL in absence of Ir-based molecular probes.
The H9c2 cells were incubated with 20 μM of Ir-based molecular probes for 30 minutes in FBS-free media (300 μL) at 37° C. and 5% CO2. These cells were washed twice with phosphate buffered saline (PBS) and once with FBS-free media, and then co-stained with either ER-Tracker™ Red (BODIPY® TR Glibenclamide), LysoTracker® Red DND-99, MitoTracker® Red CMXRos (1H,5H,11H,15H-Xantheno[2,3,4-ij:5,6,7-i′j′]diquinolizin-18-ium, 9-[4-(chloromethyl)phenyl]-2,3,6,7,12,13,16,17-octahydro-, chloride), β-BODIPY® FL C5-HPC (2-(4,4-Difluoro-5,7-Dimethyl-4-Bora-3a,4a-Diaza-s-Indacene-3-Pentanoyl)-1-Hexadecanoyl-sn-Glycero-3-Phosphocholine) or BODIPY® 500/510 C1, C12 (4,4-Difluoro-5-Methyl-4-Bora-3a,4a-Diaza-s-Indacene-3-Dodecanoic Acid), which were obtained from Life Technologies Australia Pty Ltd, Australia. Cell biology analysis was carried out with a minimum of two experimental groups. Imaging analysis was performed using a Nikon A1+ confocal microscope equipped with 403 nm, 488 nm, 561 nm and 640 nm solid-state lasers (Nikon, Japan) and OKOLab Microscope Incubator (Okolab USA Inc., USA). The final preparation of the images was conducted with Adobe Photoshop CC (Adobe Systems Inc., USA).
The H9c2 cells were incubated with 20 μM of Ir-based molecular probes for 30 minutes in FBS-free media (300 μL) at 37° C. and 5% CO2. These cells then were washed with phosphate buffered saline (PBS) and imaged using Zeiss LSM710 META NLO inverted microscope supplemented with a two-photon Mai-Tai®, tunable Ti:Sapphire femtosecond pulse laser (710-920 nm, Spectra-Physics). Fluorescence of Ir-based molecular probes was detected using the following settings: two-photon excitation wavelength 830 nm, beam splitter MBS 690+, emission interval 520-650 nm. The H9c2 cells were exposed to two-photon illumination between 810-840 nm. A continuum of lambda stack images was captured across the emission spectrum 416-728 nm. The images were acquired using a Plan-APOCHROMAT 63X/NA1.4 oil immersion objective. The final preparation of the images was conducted with Adobe Photoshop CC (Adobe Systems Inc., USA).

[3] = Photophysical measurements (absorption, emission, lifetime, quantum yield) in diluted solutions; format: physicochemical
Excerpt: A summary of the photophysical data for the complexes as diluted solutions (10^−5 M) in dichloromethane, water, PBS, lysosomal fluid solution, and ethyl laurate is reported in Table 1. All the listed aqueous media also contain 0.1% DMSO to favour the solubilisation of the complexes. The various solvents have been chosen to identify potential modulations on the photophysical behaviour of the iridium complexes in diverse cellular environments such as cytoplasm, endosome/lysosomes acidic organelles, or lipid-rich compartments like membranes, endoplasmic reticulum, and lipid droplets. In general, the photophysical characteristics were measured in aerated solutions to take into account the presence of oxygen in live cells. On the other hand, dichloromethane solutions were compared as aerated and degassed to confirm oxygen sensitivity and triplet character of the excited states of the complexes.
Absorption spectra were recorded at room temperature using a Cary 4000 UV/Vis spectrometer. Uncorrected steady state emission and excitation spectra were recorded on an Edinburgh FLSP980-S2S2-stm spectrometer equipped with: i) a temperature-monitored cuvette holder; ii) 450 W Xenon arc lamp; iii) double excitation and emission monochromators; iv) a Peltier cooled Hamamatsu R928P photomultiplier tube (spectral range 200-870 nm). Emission and excitation spectra were corrected for source intensity (lamp and grating) and emission spectral response (detector and grating) by a calibration curve supplied with the instrument. According to the approach described by Demas and Crosby, luminescence quantum yields (Φem) were measured in optically dilute solutions (O.D.<0.1 at excitation wavelength) obtained from absorption spectra on a wavelength scale [nm] and compared to the reference emitter by the following equation: […]
where A is the absorbance at the excitation wavelength (λ), I is the intensity of the excitation light at the excitation wavelength (λ), n is the refractive index of the solvent, D is the integrated intensity of the luminescence and Φ is the quantum yield. The subscripts r and x refer to the reference and the sample, respectively. The quantum yield determinations were performed at identical excitation wavelength for the sample and the reference, therefore cancelling the I(λr)/I(λx) term in the equation. The quantum yields of complexes were measured against Rubipy in water (Φr=0.028). Emission lifetimes (z) were determined with the time correlated single photon counting technique (TCSPC) with the same Edinburgh FLSP980-S2S2-stm spectrometer using either a pulsed picosecond LED (EPLED/EPL 377 nm, FHWM<800 ps) or a microsecond flashlamp. The goodness of fit was assessed by minimising the reduced χ^2 function and by visual inspection of the weighted residuals. The solvents used for the preparation of the solutions for the photophysical investigations were of LR grade and the water was deionised. Degassing of the dichlorometane solutions was performed using the freeze-pump-thaw method. Experimental uncertainties are estimated to be ±8% for lifetime determinations, ±20% for quantum yields, ±2 nm and ±5 nm for absorption and emission peaks, respectively.

SMILES: C[n+]1nc2[n](n1)[Ir]13([c]4cc(F)cc(F)c4-c4cccc[n+]41)([c]1cc(F)cc(F)c1-c1cccc[n+]13)[n+]1cc(C#N)ccc1-2 [[Ir(F2ppy)2(MeTzPyCN)]^+]
- logD [1]: 1.86 ± 0.02
- cellular localisation (co-staining) ([2]; live H9c2, 20 μM, 30 minutes): staining pattern consistent with mitochondrial localisation
- emission profile from cells ([2]; live H9c2, one-photon or two-photon excitation): blue-shifted and almost superimposable bands between these cationic complexes and their neutral analogues
- Absorption λabs [nm] (10^4ε [M^−1cm^−1]) ([3]; DCM, 10^−5 M): 250 (3.56) nm (10^4ε [M^−1cm^−1]) and 316 (1.28) nm (10^4ε [M^−1cm^−1]) and 356 (0.58) nm (10^4ε [M^−1cm^−1])
- Emission λem ([3]; DCM, 298K, 10^−5 M): 600 nm
- τaer, excited state lifetime (relative weight in parentheses) ([3]; DCM, aerated, 298K): 287 ns
- Φaer, quantum yield ([3]; DCM, aerated, versus Ru(bpy)3^2+ in water (φr = 0.028)): 0.057
- τdeaer, excited state lifetime (relative weight in parentheses) ([3]; DCM, deaerated, 298K): 551 ns
- Φdeaer, quantum yield ([3]; DCM, deaerated, versus Ru(bpy)3^2+ in water (φr = 0.028)): 0.188
- knr ([3]; DCM, calculated as [(1 − φ)/τ] from deaerated solutions): 1.601 10^6s^−1
- kr ([3]; DCM, calculated as [φ/τ] from deaerated solutions): 2.142 10^5s^−1
- Absorption λabs [nm] (10^4ε [M^−1cm^−1]) ([3]; H2O with 0.1% DMSO, 10^−5 M): 260 (4.12) nm (10^4ε [M^−1cm^−1]) and 309 (1.55) nm (10^4ε [M^−1cm^−1]) and 353 (0.66) nm (10^4ε [M^−1cm^−1])
- Emission λem ([3]; H2O with 0.1% DMSO, 298K, aerated): 636 nm
- Φ, quantum yield ([3]; H2O with 0.1% DMSO, aerated, versus Ru(bpy)3^2+ in water): 0.005
